For twelve compounds, Kd results are on record in US20250064941A1, “SIGLEC LIGANDS, CONJUGATES, AND METHODS OF USE THEREOF” (Osprey Biopharmaceuticals, Inc., priority 2023, published 2025).

For one assay, the target named is cynomolgus Siglec-2/CD22 (Macaca fascicularis, UniProt A0A2K5WCZ6). In words: biochemical. The class given is binding. The settings on record: SPR, steady-state analysis; read-out: Affinity cyno CD22. In outline:
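SPR with desialylated (SialoExo, 4 h, 37° C.) cynomolgus CD22 amine-coupled to a CM5 chip. Running buffer 10 mM HEPES, 150 mM NaCl, 0.05% Tween-20, pH 7.5, 1% DMSO, with solvent correction; 120 s dissociation. Affinities from steady-state analysis.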

The target in assay [1] is T1, mouse Siglec-2-Fc-Avi (CD22) (Mus musculus, UniProt P35329).
T1 construct: made in house
T1 sequence (P35329 22-708 limits assumed): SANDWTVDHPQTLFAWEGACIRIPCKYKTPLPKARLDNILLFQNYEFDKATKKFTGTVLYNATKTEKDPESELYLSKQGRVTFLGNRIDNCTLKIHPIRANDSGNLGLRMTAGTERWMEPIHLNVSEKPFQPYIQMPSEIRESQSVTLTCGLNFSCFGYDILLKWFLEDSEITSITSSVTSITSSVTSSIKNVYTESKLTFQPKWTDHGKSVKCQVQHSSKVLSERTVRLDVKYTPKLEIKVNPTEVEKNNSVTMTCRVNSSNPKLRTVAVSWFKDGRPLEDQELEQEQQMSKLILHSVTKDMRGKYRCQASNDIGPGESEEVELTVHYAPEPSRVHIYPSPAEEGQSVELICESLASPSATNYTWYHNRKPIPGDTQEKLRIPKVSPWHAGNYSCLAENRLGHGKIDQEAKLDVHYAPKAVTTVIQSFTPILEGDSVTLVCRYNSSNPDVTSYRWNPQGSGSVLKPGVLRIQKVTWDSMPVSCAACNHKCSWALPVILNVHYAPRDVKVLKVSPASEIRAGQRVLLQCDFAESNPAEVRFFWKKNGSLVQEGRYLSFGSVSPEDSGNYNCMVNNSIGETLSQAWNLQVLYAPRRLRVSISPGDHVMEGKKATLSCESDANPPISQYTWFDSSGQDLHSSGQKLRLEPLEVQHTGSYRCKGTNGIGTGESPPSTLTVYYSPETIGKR
In words: SPR binding affinity to mouse CD22. To be noted: steady-state analysis. Put shortly: (§1)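 Native sialic acid residues are removed from the receptor enzymatically (4 hours at 37° C.) prior to streptavidin capture of the biotinylated protein. Ligand compounds then flow over in HEPES-buffered saline, pH 7.5, containing 0.05% Tween-20 and 1% DMSO, and binding is evaluated at steady state.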

In assay [2] the target is T2, human Siglec-2/CD22 protein (Homo sapiens, UniProt P20273).
T2 construct: purchased Acro Biosystems SI2-H82E3
T2 sequence (P20273 20-847): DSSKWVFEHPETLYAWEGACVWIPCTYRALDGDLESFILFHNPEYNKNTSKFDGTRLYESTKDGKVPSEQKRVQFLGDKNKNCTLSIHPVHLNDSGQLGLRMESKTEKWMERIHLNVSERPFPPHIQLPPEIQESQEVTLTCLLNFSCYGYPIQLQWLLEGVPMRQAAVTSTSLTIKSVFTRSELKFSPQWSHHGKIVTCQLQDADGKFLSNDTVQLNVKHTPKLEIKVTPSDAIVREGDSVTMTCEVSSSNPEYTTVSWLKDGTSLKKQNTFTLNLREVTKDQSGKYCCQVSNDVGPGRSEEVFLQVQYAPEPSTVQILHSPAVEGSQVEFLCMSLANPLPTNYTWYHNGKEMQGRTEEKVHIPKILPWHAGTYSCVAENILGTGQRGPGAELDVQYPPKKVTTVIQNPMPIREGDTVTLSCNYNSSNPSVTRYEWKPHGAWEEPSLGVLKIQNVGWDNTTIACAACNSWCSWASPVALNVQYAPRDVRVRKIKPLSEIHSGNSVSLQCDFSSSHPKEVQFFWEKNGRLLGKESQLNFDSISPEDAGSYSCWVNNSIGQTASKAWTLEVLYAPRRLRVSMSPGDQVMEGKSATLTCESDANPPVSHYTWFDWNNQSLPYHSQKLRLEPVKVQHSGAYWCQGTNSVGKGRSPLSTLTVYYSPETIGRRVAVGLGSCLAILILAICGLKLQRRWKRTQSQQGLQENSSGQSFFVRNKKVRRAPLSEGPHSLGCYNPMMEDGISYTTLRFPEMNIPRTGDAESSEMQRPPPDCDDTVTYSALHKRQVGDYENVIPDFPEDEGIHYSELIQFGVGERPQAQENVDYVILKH
The assay can be described thus: SPR binding affinity to human CD22. The settings on record: steady-state analysis. Put shortly:
as §1

The structures appear in SMILES notation.

Sequence of cynomolgus Siglec-2/CD22 (A0A2K5WCZ6 entry or part of it): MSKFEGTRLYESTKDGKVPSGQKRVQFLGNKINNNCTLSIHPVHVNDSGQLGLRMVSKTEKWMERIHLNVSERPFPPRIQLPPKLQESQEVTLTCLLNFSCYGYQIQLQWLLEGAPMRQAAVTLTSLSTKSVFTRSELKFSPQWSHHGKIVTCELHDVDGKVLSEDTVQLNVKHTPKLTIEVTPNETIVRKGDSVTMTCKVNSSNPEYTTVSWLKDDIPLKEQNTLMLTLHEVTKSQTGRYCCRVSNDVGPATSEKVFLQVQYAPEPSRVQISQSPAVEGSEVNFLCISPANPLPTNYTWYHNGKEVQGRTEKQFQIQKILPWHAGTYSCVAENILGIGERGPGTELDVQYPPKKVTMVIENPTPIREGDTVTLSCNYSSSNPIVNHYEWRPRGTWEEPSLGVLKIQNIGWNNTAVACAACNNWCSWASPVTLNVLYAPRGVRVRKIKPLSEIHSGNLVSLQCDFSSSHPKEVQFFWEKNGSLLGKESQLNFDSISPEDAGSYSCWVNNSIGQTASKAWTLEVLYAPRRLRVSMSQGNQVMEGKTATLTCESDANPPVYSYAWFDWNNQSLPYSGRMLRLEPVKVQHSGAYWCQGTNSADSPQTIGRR

Regarding `C#CCOc1ccc(CO[C@]2(C(=O)O)C[C@H](O)[C@@H](NC(=O)CO)[C@H]([C@H](O)[C@H](O)CNC(=O)Cc3ccc(F)cc3)O2)cc1` [Compound 166, (2R,4S,5R,6R)-6-((1R,2R)-3-(2-(4-fluorophenyl)acetamido)-1,2-dihydroxypropyl)-4-hydroxy-5-(2-hydroxyacetamido)-2-((4-(prop-2-yn-1-yloxy)benzyl)oxy)tetrahydro-2H-pyran-2-carboxylic acid], the Kd at cynomolgus Siglec-2/CD22 was 1 to 10 µM; in assay [1], 1 to 10 µM; in assay [2], less than 1 µM.
For the compound `C#CCOc1ccc(CO[C@]2(C(=O)O)C[C@H](O)[C@@H](NC(=O)CO)[C@H]([C@H](O)[C@H](O)CNC(=O)Cc3cccc(F)c3)O2)cc1` [Compound 167, (2R,4S,5R,6R)-6-((1R,2R)-3-(2-(3-fluorophenyl)acetamido)-1,2-dihydroxypropyl)-4-hydroxy-5-(2-hydroxyacetamido)-2-((4-(prop-2-yn-1-yloxy)benzyl)oxy)tetrahydro-2H-pyran-2-carboxylic acid], the Kd on cynomolgus Siglec-2/CD22 is 1 to 10 µM; in assay [1], 1 to 10 µM; in assay [2] it was less than 1 µM.
`C#CCCOc1ccc(CO[C@]2(C(=O)O)C[C@H](O)[C@@H](NC(=O)CO)[C@H]([C@H](O)[C@H](O)CNC(=O)Cc3ccc(NC(C)=O)cc3)O2)cc1` [Compound 168, (2R,4S,5R,6R)-6-((1R,2R)-3-(2-(4-acetamidophenyl)acetamido)-1,2-dihydroxypropyl)-2-((4-(but-3-yn-1-yloxy)benzyl)oxy)-4-hydroxy-5-(2-hydroxyacetamido)tetrahydro-2H-pyran-2-carboxylic acid]: the Kd (on cynomolgus Siglec-2/CD22; in assay [1]; in assay [2]) was 1 to 10 µM each time.
As for `C#CCCOc1ccc(CO[C@]2(C(=O)O)C[C@H](O)[C@@H](NC(=O)CO)[C@H]([C@H](O)[C@H](O)CNC(=O)C(C)(O)c3ccccc3)O2)cc1` (stereo partly drawn) [Compound 169, (2R,4S,5R,6R)-2-((4-(but-3-yn-1-yloxy)benzyl)oxy)-6-((1R,2R)-1,2-dihydroxy-3-(2-hydroxy-2-phenylpropanamido)propyl)-4-hydroxy-5-(2-hydroxyacetamido)tetrahydro-2H-pyran-2-carboxylic acid], the Kd is 1 to 10 µM at cynomolgus Siglec-2/CD22, more than 10 µM in assay [1] and 1 to 10 µM in assay [2].
Regarding `C#CCCOc1ccc(CO[C@]2(C(=O)O)C[C@H](O)[C@@H](NC(=O)CO)[C@H]([C@H](O)[C@H](O)CNC(=O)C3(c4ccc(C(F)(F)F)cc4)CCOCC3)O2)cc1` [Compound 170, (2R,4S,5R,6R)-2-((4-(but-3-yn-1-yloxy)benzyl)oxy)-6-((1R,2R)-1,2-dihydroxy-3-(4-(4-(trifluoromethyl)phenyl)tetrahydro-2H-pyran-4-carboxamido)propyl)-4-hydroxy-5-(2-hydroxyacetamido)tetrahydro-2H-pyran-2-carboxylic acid], the Kd (on cynomolgus Siglec-2/CD22; in assay [1]; in assay [2]) was 1 to 10 µM each time.
In the case of `C#CCCOc1ccc(CO[C@]2(C(=O)O)C[C@H](O)[C@@H](NC(=O)CO)[C@H]([C@H](O)[C@H](O)CNC(=O)C(OC)(c3ccccc3)C(F)(F)F)O2)cc1` (stereo partly drawn) [Compound 171, (2R,4S,5R,6R)-2-((4-(but-3-yn-1-yloxy)benzyl)oxy)-6-((1R,2R)-1,2-dihydroxy-3-(3,3,3-trifluoro-2-methoxy-2-phenylpropanamido)propyl)-4-hydroxy-5-(2-hydroxyacetamido)tetrahydro-2H-pyran-2-carboxylic acid], the Kd (at cynomolgus Siglec-2/CD22; in assay [1]; in assay [2]) was 1 to 10 µM throughout.
For `C#CCCOc1ccc(CO[C@]2(C(=O)O)C[C@H](O)[C@@H](NC(=O)CO)[C@H]([C@H](O)[C@H](O)CNC(=O)C(F)(F)c3ccccc3)O2)cc1` [Compound 172, (2R,4S,5R,6R)-2-((4-(but-3-yn-1-yloxy)benzyl)oxy)-6-((1R,2R)-3-(2,2-difluoro-2-phenylacetamido)-1,2-dihydroxypropyl)-4-hydroxy-5-(2-hydroxyacetamido)tetrahydro-2H-pyran-2-carboxylic acid], the Kd (at cynomolgus Siglec-2/CD22; in assay [1]; in assay [2]) was 1 to 10 µM in each case.
As to `C#CCCOc1ccc(CO[C@]2(C(=O)O)C[C@H](O)[C@@H](NC(=O)CO)[C@H]([C@H](O)[C@H](O)CNC(=O)C3(c4ccccc4)CC3)O2)cc1` [Compound 173, (2R,4S,5R,6R)-2-((4-(but-3-yn-1-yloxy)benzyl)oxy)-6-((1R,2R)-1,2-dihydroxy-3-(1-phenylcyclopropane-1-carboxamido)propyl)-4-hydroxy-5-(2-hydroxyacetamido)tetrahydro-2H-pyran-2-carboxylic acid], the Kd is 1 to 10 µM on cynomolgus Siglec-2/CD22, more than 10 µM in assay [1] and 1 to 10 µM in assay [2].
Take `C#CCOCCOCCO[C@]1(C(=O)O)C[C@H](O)[C@@H](NC(=O)CO)[C@H]([C@H](O)[C@H](O)CNC(=O)Cc2ccc(OC)cc2)O1` [Compound 174, (2R,4S,5R,6R)-6-((1R,2R)-1,2-dihydroxy-3-(2-(4-methoxyphenyl)acetamido)propyl)-4-hydroxy-5-(2-hydroxyacetamido)-2-(2-(2-(prop-2-yn-1-yloxy)ethoxy)ethoxy)tetrahydro-2H-pyran-2-carboxylic acid]: the Kd (at cynomolgus Siglec-2/CD22; in assay [1]; in assay [2]) was 1 to 10 µM in each case.
For `C#CCOCCOCCO[C@]1(C(=O)O)C[C@H](O)[C@@H](NC(=O)CO)[C@H]([C@H](O)[C@H](O)CNC(=O)Cc2ccc(C)cc2)O1` [Compound 175, (2R,4S,5R,6R)-6-((1R,2R)-1,2-dihydroxy-3-(2-(p-tolyl)acetamido)propyl)-4-hydroxy-5-(2-hydroxyacetamido)-2-(2-(2-(prop-2-yn-1-yloxy)ethoxy)ethoxy)tetrahydro-2H-pyran-2-carboxylic acid], the Kd (on cynomolgus Siglec-2/CD22; in assay [1]; in assay [2]) was 1 to 10 µM throughout.
Regarding `C#CCOCCCCCCO[C@]1(C(=O)O)C[C@H](O)[C@@H](NC(=O)CO)[C@H]([C@H](O)[C@H](O)CNC(=O)Cc2ccc(-c3nnn[nH]3)cc2)O1` [Compound 176, (2R,4S,5R,6R)-6-((1R,2R)-3-(2-(4-(1H-tetrazol-5-yl)phenyl)acetamido)-1,2-dihydroxypropyl)-4-hydroxy-5-(2-hydroxyacetamido)-2-((6-(prop-2-yn-1-yloxy)hexyl)oxy)tetrahydro-2H-pyran-2-carboxylic acid], the Kd (on cynomolgus Siglec-2/CD22; in assay [1]; in assay [2]) was less than 1 µM each time.
`C#CCOCCOCCO[C@]1(C(=O)O)C[C@H](O)[C@@H](NC(=O)CO)[C@H]([C@H](O)[C@H](O)CNC(=O)Cn2cc(-c3ccccc3)nn2)O1` [Compound 177, (2R,4S,5R,6R)-6-((1R,2R)-1,2-dihydroxy-3-(2-(4-phenyl-1H-1,2,3-triazol-1-yl)acetamido)propyl)-4-hydroxy-5-(2-hydroxyacetamido)-2-(2-(2-(prop-2-yn-1-yloxy)ethoxy)ethoxy)tetrahydro-2H-pyran-2-carboxylic acid]: the values for the Kd (on cynomolgus Siglec-2/CD22; in assay [1]; in assay [2]) were 1 to 10 µM, more than 10 µM and 1 to 10 µM, respectively.
